Key:
human isoQC (S53-L382) [1] = target: T1, human isoQC (S53-L382) (Homo sapiens, UniProt Q9NXS2); assay: Assay 1 - isoQC inhibition, fluorescent enzymatic assay (single concentration); format: biochemical; settings: isoQC inhibition at 250 nM test compound; read-out: isoQc Inh. Assay No. 1
T1 construct: enzymatically active region of human isoQC (S53-L382; see, e.g., Huang et al., 2011); GST-Enterokinase site (N, cleaved yes); made in house; host or cells: E. coli
Method: Initially, isoQC inhibitory activity was measured at a single concentration in a fluorescent-based assay (Assay 1 below). In order to establish the inhibitory activity more quantitatively, IC50 values were obtained using a mass spectrometry-based assay where pyroglutamylation by either isoQC or QC was measured (Assays 2 and 4, respectively, below). Alternatively, IC50 values for isoQC or QC were obtained using a fluorescence-based assay (Assays 3 and 5 respectively, below).
(§1) The Golgi luminal, enzymatically active region of human isoQC (S53-L382; see, e.g., Huang et al., 2011) was obtained by expression in E. coli of an N-terminally GST-Enterokinase and C-terminally 6×His tagged construct in the pET41(+) vector and subsequent purification using talon beads and GST beads, enterokinase digestion and further purification with a final formulation in 25 mM Tris pH 8.0/150 mM NaCl/1 mM TCEP. Absence of pyroglutamylating activity in an enzymatic dead variant that was cloned, expressed, and purified in parallel ruled out that the purification strategy isolates any endogenously present pyroglutamylating activity.
Pyroglutamylation was measured by conversion of glutamine-4-amino-7-methylcoumarine (H-Gln-AMC, Bachem) to pyroglutamyl-AMC, which is subsequently a specific substrate for pyroglutamylaminopeptidase (pGAPase, Qiagen), releasing free AMC which can be fluorescently detected. For a typical inhibition assay, 15 μL 20 μM h-Gln-AMC (diluted from a 40 mM stock dissolved in 25 mM HEPES using 50 mM Tris-HCl pH 8.0) was pipetted into a 96-well plate on ice. Next, 7.5 μL 1 μM test compound (diluted from a 10 mM stock dissolved in DMSO using 50 mM Tris-HCl) was added. Finally, 7.5 μL, 3 ng/μL recombinant isoQC enzyme was added and the reaction mixture was incubated for 1 hour at 37° C. A 5 minute incubation at 98° C. was then performed to denature the isoQC enzyme and stop the reaction.
To detect the amount of pyroglutamyl-AMC formed, a 96-well plate was prepared with 25 μL 0.125 U/mL pGAPase enzyme diluted in 50 mM Tris-HCl pH 8.0 containing 10 mM dithiothreitol (DTT). 25 μL of the pyroglutamylation reaction mixture was transferred into the plate containing the pGAPase solutions while on ice. Once done, the plate was moved over to a Spectramax ID3 fluorescent plate-reader to monitor and record the maximum fluorescence at 380 nm excitation/450 nm emission over a period of 20 minutes while keeping the temperature at 37° C.
DMSO concentrations during the assay never exceeded 1% and activities were compared to controls containing only the same amount of DMSO and no test compound. […] Test compounds were reported as active when <40% of background corrected signal was measured as compared to DMSO controls.

human isoQC (S53-L382) [2] = target: T1, human isoQC (S53-L382); assay: Assay 2 - isoQC potency, mass spectrometry-based enzymatic potency assay; format: biochemical; settings: mass spectrometry read-out, 7.5 nM isoQC, 10 μM H-Gln-AMC; read-out: isoQc Pot. Assay No. 2
Method: as §1
(§2) EC50's of test compounds were determined by incubating 11-point two-fold dilutions of test compound in 20 μL volumes in the presence of 7.5 nM isoQC and 10 μM H-Gln-AMC using 50 mM Tris-HCl pH 8.0 as assay buffer for 2 hours at room temperature before stopping the reaction by the addition of 2 volumes of methanol. Both the substrate and the product of this reaction were read out using an Agilent RapidFire microfluidic solid phase sample extraction system coupled to an AB Sciex API 4000 triple quadrupole mass spectrometer, in negative ion mode, at m/z of 301.9 and 284.9 respectively. The actual readout was defined as P/(S+P), where P is the product signal area and S the substrate signal area. EC50's were calculated by four parameter sigmoidal model fitting.

recombinant human QC = target: T2, recombinant human QC (Homo sapiens, UniProt Q16769); assay: Assay 4 - QC potency, mass spectrometry-based enzymatic potency assay; format: biochemical; settings: mass spectrometry read-out; read-out: QC Pot. Assay No. 4
T2 construct: His6 (N); purchased R&D Systems
T2 sequence (Q16769 29-361): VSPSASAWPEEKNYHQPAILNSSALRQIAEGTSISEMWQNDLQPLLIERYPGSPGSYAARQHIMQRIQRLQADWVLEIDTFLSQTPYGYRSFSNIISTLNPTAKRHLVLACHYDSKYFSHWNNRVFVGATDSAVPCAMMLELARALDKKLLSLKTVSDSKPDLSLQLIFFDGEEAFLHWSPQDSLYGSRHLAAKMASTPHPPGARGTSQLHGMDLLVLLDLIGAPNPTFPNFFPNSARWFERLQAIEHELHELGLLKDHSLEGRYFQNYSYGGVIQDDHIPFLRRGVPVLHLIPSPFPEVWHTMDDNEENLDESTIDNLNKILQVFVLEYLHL
Method: as §2
EC50's of test compounds were determined in the same way as described in Assay 2 above, except that N-terminally His6-tagged recombinant human QC (R&D Systems) was used instead of isoQC.

[3] = test system: pyroglutamylated CD47 (pE-CD47) in KBM7 cells; assay: Assay 6 - cell-based potency assay (pE-CD47 CC2C6 staining vs total CD47); set-up: species or system human; settings: Homo sapiens, KBM-7, 72 h, CC2C6 signal, read-out: Cell Pot. Assay No. 6
Method: Cells were spun for 4 minutes at 1500 rpm and washed once with PBS/0.5% BSA. Cells were spun down again and the supernatant was removed and incubated in 100 uL antibody staining solution (PBS/0.5% BSA/0.1 μg/mL DAPI (4′,6-diamidino-2-phenylindole, ThermoFisher Scientific) and a mixture of 1:500 FITC-conjugated anti-human CD47 clone 2D3, which recognizes total CD47 irrespective of its pyroglutamylation state, and 1:500 Alexa647-conjugated anti-human CD47 clone CC2C6, which specifically detects pyroglutamylated CD47) for 2 hours at 4° C. Next, the cells were spun down and washed twice with 2×150 μL PBS/0.5% BSA to remove unbound antibody. Cells were again spun down and taken up in 300 μL FACS buffer before analysis on a Celesta FACS machine (BD Biosciences).
KBM7 cells (Kotecki et al., 1999) were infected with lentivirus produced by transfecting pSCNC-LentiCRISPR-QPCTL or pSCNC-LentiCRISPR-CD47 into HEK-293T cells according to standard protocols. After 24 hours incubation, cells were selected with puromycin (Invivogen, 1 μg/mL) for 48 hours. Cells were stained for total CD47 and pE-CD47 and QPCTL k.o. cells were sorted out as negative for pE-CD47, and CD47 k.o. cells as negative for total CD47, using a FACSAria III and FACS Diva software (BD Biosciences).
In order to test compounds for their effect on pyroglutamylation in live cells, 25000 KBM7 cells per well were seeded in a 96-well U-bottom plate in 150 μl IMDM/10% FCS/1% Pen/Strep medium and a 10-point 2-fold dilution range of test compounds. After 72 hours incubation at 37° C., 5% CO2, cells were stained for total CD47 and pE-CD47 and analyzed on a BD Celesta using FACS Diva software (BD Biosciences). Cells gated for DAPI negativity were recorded and the median fluorescence intensity (MFI) of each sample was transformed to linearly scale between the MFI's of wildtype and CD47 knockout cells (in case of the 2D3 antibody) and the wildtype and QPCTL knockout cells (in case of the CC2C6 antibody). IC50's were calculated by 3 parameter logistic regression of the CC2C6 signal vs. compound concentration, where the top of the sigmoidal curve was fixed at 1, using R and the drc package (http://www.r-project.org, https://cran.r-project.org/web/packages/drc/index.html).

T1 sequence (Q9NXS2 53-382): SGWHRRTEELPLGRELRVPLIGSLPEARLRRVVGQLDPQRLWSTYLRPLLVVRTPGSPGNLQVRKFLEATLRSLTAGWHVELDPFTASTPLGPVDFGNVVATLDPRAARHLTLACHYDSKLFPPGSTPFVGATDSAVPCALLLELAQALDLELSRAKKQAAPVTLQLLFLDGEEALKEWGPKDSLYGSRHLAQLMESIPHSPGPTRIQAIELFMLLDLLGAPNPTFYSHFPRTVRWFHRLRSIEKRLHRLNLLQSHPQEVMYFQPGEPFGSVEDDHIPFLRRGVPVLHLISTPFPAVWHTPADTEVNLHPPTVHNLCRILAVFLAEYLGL

Row | inhibition at 0.25 µM (human isoQC (S53-L382) [1]) [%] | IC50 (human isoQC (S53-L382) [2]) [nM] | IC50 (recombinant human QC) [nM] | IC50 [3] [nM] | Compound
1 | > 40 | 25 to 100 | 100 to 5000 | < 1000 | CCCOc1ccc(C2c3c(nn(C)c3C)C(=O)N2c2ccc3[nH]cnc3c2)c(C)c1 (stereo not shown) [FRPPO-003]
2 | > 40 | < 25 | 25 to 100 | < 1000 | CCCOc1ccc(C2c3c(nn(C)c3C)C(=O)N2c2ccc3[nH]cnc3c2)c(Cl)c1 (stereo not shown) [FRPPO-004]
3 | > 40 | 25 to 100 | 100 to 5000 | < 1000 | CCCOc1ccc(C2c3c(nn(C)c3C3CC3)C(=O)N2c2ccc3[nH]cnc3c2)cc1 (stereo not shown) [FRPPO-006]
4 | > 40 | 25 to 100 | 25 to 100 | < 1000 | CCCOc1ccc(C2c3c(nn(C)c3CC)C(=O)N2c2ccc3[nH]cnc3c2)cc1 (stereo not shown) [FRPPO-007]
5 | ≤ 40 |  |  | 5000 to 50000 | CCCOc1ccc(C2c3c(C)nn(C(C)C)c3C(=O)N2c2ccc3[nH]cnc3c2)cc1 (stereo not shown) [FRPPO-021]
6 | ≤ 40 |  |  | 1000 to 5000 | CCCOc1ccc(C2c3c(C)nn(C4CCC4)c3C(=O)N2c2ccc3[nH]cnc3c2)cc1 (stereo not shown) [FRPPO-022]
7 | ≤ 40 |  |  | 5000 to 50000 | CCCOc1ccc(C2c3c(C)nn(CC(F)(F)F)c3C(=O)N2c2ccc3[nH]cnc3c2)cc1 (stereo not shown) [FRPPO-023]
8 | > 40 |  |  | < 1000 | CCCOc1ccc(C2c3c(nn(C4CC4)c3C)C(=O)N2c2ccc3[nH]cnc3c2)cc1 (stereo not shown) [FRPPO-036]
9 | > 40 |  |  | 1000 to 5000 | CCCOc1ccc(C2c3c(nn(CC(F)(F)F)c3C)C(=O)N2c2ccc3[nH]cnc3c2)cc1 (stereo not shown) [FRPPO-037]
10 | > 40 |  |  | 1000 to 5000 | CCCOc1ccc(C2c3c(nn(CC(C)(C)F)c3C)C(=O)N2c2ccc3[nH]cnc3c2)cc1 (stereo not shown) [FRPPO-038]
11 |  |  |  | < 1000 | Cc1c2c(nn1C1CC1)C(=O)N(c1ccc3[nH]cnc3c1)C2c1ccc(N2CCC(F)(F)CC2)cc1F (stereo not shown) [FRPPO-137]
12 |  |  |  | < 1000 | Cc1c2c(nn1C)C(=O)N(c1ccc3[nH]cnc3c1)C2c1ccc(-c2ccc(OC(F)(F)F)nc2)cc1F (stereo not shown) [FRPPO-142A]
13 |  |  |  | < 1000 | Cc1c2c(nn1C)C(=O)N(c1ccc3[nH]cnc3c1)C2c1ccc(-c2cnc(C(F)(F)F)s2)cc1F (stereo not shown) [FRPPO-144]
14 |  |  |  | < 1000 | Cc1[nH]nc2c1C(c1ccc(-c3cnc(C(F)(F)F)s3)cc1F)N(c1ccc3[nH]cnc3c1)C2=O (stereo not shown) [FRPPO-145]
15 |  |  |  | < 1000 | Cc1c2c(nn1C)C(=O)N(c1ccc3[nH]cnc3c1)C2c1ccc(-c2csc(C(F)(F)F)n2)cc1F (stereo not shown) [FRPPO-146]
16 |  |  |  | < 1000 | Cc1[nH]nc2c1C(c1ccc(-c3csc(C(F)(F)F)n3)cc1F)N(c1ccc3[nH]cnc3c1)C2=O (stereo not shown) [FRPPO-147]

Row | inhibition at 0.25 µM (human isoQC (S53-L382) [1]) [%] | IC50 (human isoQC (S53-L382) [2]) [nM] | IC50 (recombinant human QC) [nM] | IC50 [3] [nM] | Compound
17 |  |  |  | < 1000 | Cc1c2c(nn1C)C(=O)N(c1ccc3[nH]cnc3c1)C2c1ccc(-n2cc(C(F)(F)F)cn2)cc1F (stereo not shown) [FRPPO-150A]
18 |  |  |  | < 1000 | CC(C)c1c2c(nn1C)C(=O)N(c1ccc3[nH]cnc3c1)C2c1ccc(N2CCC(F)(F)C2)cc1F (stereo not shown) [FRPPO-152A]
19 |  |  |  | < 1000 | CC(C)c1[nH]nc2c1C(c1ccc(N3CCC(F)(F)C3)cc1F)N(c1ccc3[nH]cnc3c1)C2=O (stereo not shown) [FRPPO-153]
20 |  |  |  | < 1000 | Cc1c2c(nn1C)C(=O)N(c1ccc3[nH]cnc3c1)C2c1ccc(N2CCC(F)(F)C2)c(F)c1F (stereo not shown) [FRPPO-154]
21 |  |  |  | 5000 to 50000 | Cc1c2c(nn1C)C(=O)N(c1ccc3[nH]cnc3c1)C2c1cccc(C2CCN(C)CC2)c1F (stereo not shown) [FRPPO-155]
22 |  |  |  | < 1000 | CC(O)c1c2c(nn1C)C(=O)N(c1ccc3[nH]cnc3c1)C2c1ccc(N2CCC(F)(F)C2)cc1F (stereo not shown) [FRPPO-156]
23 |  |  |  | < 1000 | Cn1nc2c(c1CO)C(c1ccc(N3CCC(F)(F)C3)cc1F)N(c1ccc3[nH]cnc3c1)C2=O (stereo not shown) [FRPPO-157]
24 |  |  |  | 1000 to 5000 | Cc1nn(C)c2c1C(c1ccc(OCCC(F)F)c(F)c1F)N(c1ccc3[nH]cnc3c1)C2=O (stereo not shown) [FRPPO-167]
25 |  |  |  | 1000 to 5000 | Cn1nc(C2CC2)c2c1C(=O)N(c1ccc3[nH]cnc3c1)C2c1ccc(N2CCC(F)(F)C2)cc1 (stereo not shown) [FRPPO-168]
26 |  |  |  | 1000 to 5000 | Cc1nn(C)c2c1C(c1ccc(N3CCC(F)(F)C3)c(F)c1F)N(c1ccc3[nH]cnc3c1)C2=O (stereo not shown) [FRPPO-169]
27 |  |  |  | 1000 to 5000 | Cc1nn(C)c2c1C(c1ccc(N3CCC(F)(F)C3)cc1F)N(c1ccc3[nH]cnc3c1)C2=O (stereo not shown) [FRPPO-170]
28 |  |  |  | 1000 to 5000 | Cc1nn(C)c2c1C(c1ccc(-n3cc(C(F)(F)F)cn3)cc1)N(c1ccc3[nH]cnc3c1)C2=O (stereo not shown) [FRPPO-174]
29 |  |  |  | < 1000 | Cc1nn(C)c2c1C(c1ccc(-c3cnn(C(F)(F)F)c3)cc1)N(c1ccc3[nH]cnc3c1)C2=O (stereo not shown) [FRPPO-175]
30 |  |  |  | < 1000 | Cc1c2c(nn1C)C(=O)N(c1ccn3ccnc3c1)C2c1ccc(N2CCOC(C)C2)cc1F (stereo not shown) [FRPPO-197]
31 |  |  |  | < 1000 | Cc1[nH]nc2c1C(c1ccc(-n3cc(C(F)(F)F)cn3)cc1F)N(c1ccn3ccnc3c1)C2=O (stereo not shown) [FRPPO-198]

Source: patent US20230077723A1, “N-SUBSTITUTED-3,4-(FUSED 5-RING)-5-PHENYL-PYRROLIDINE-2-ONE COMPOUNDS AS INHIBITORS OF ISOQC AND/OR QC ENZYME” (Scenic Immunology B.V., priority 2019, published 2023)
